Laboratory results taken from patent US20260166029A1, “METHODS AND SYSTEMS FOR TREATING DISEASE USING AN ATR/CHK1 SIGNALING PATHWAY INHIBITOR” (Acrivon Therapeutics, Inc., priority 2022, published 2026).

What was measured:
BxPC3 = experiment: Cell Titer Glo 2.0 relative cell viability, 72 h (Example 10); format: cell-based; settings: Homo sapiens, BXPC-3, BxPC3 cell line, read-out: Abs IC50
Experimental: (§1) The present Example provides experimental evidence that cell lines predicted to be sensitive to a Chk1 inhibitor (e.g., prexasertib, are also sensitive to Wee1 inhibitors (e.g., adavosertib (AZD1775, MK1775) and azenosertib (Zn-C3)). Cell lines were treated with increasing doses of either prexasertib, adavosertib, or azenosertib, and relative cell viability against a DMSO control was assessed 72 h after drug treatment using Cell Titer Glo 2.0 (Promega) and a SpectraMax microplate reader. The results are shown in FIGS. 19A-19C. Error bars represent standard deviations from quadruplicate samples.

A2780 = experiment: as above; format: cell-based; settings: Homo sapiens, A2780 cell line, read-out: Abs IC50
Experimental: as §1

A375 = experiment: as above; format: cell-based; settings: Homo sapiens, A-375, A375 cell line, read-out: Abs IC50
Experimental: as §1

PC3 = experiment: as above; format: cell-based; settings: Homo sapiens, PC-3, PC3 cell line, read-out: Abs IC50
Experimental: as §1

OVCAR3 = experiment: as above; format: cell-based; settings: Homo sapiens, OVCAR-3, OVCAR3 cell line, read-out: Abs IC50
Experimental: as §1

HeLa = experiment: as above; format: cell-based; settings: Homo sapiens, HeLa cell line, read-out: Abs IC50
Experimental: as §1

T47D = experiment: as above; format: cell-based; settings: Homo sapiens, T47D cell line, read-out: Abs IC50
Experimental: as §1

[1] = tested on: OVCAR3-P and OVCAR3-R cells; experiment: Global pan-/phospho-proteomic analysis and western blot after gemcitabine (Example 12); format: cell-based, human; settings: gemcitabine 10 nM for 24 hours vs DMSO control
Experimental: To determine whether treatment with gemcitabine can alter the abundance of biomarkers associated with a Response-Predictive Signature, a global pan-proteomic and phosphor-proteomic analysis was performed to compare treatment with low dose gemcitabine (10 nM for 24 hours) to DMSO control in both OVCAR3-P and OVCAR3-R cells.

Question: For C=CCn1c(=O)c2cnc(Nc3ccc(N4CCN(C)CC4)cc3)nc2n1-c1cccc(C(C)(C)O)n1 [Adavosertib], which IC50 (BxPC3) is on record?
Answer: 360 nM

Question: What about the IC50 (A2780) of the same compound?
Answer: 653 nM

Question: What about the IC50 (A375) of the same compound?
Answer: 170 nM

Question: What about the IC50 (PC3) of the same compound?
Answer: > 10000 nM

Question: And the IC50 (OVCAR3)?
Answer: 237 nM

Question: And the IC50 (HeLa)?
Answer: 328 nM

Question: What about the IC50 (T47D) of the same compound?
Answer: > 10000 nM

Question: Which results are given for C=CCn1c(=O)c2cnc(Nc3ccc(N4CCN(C)CC4)cc3)nc2n1-c1ccc2c(n1)[C@@](O)(CC)CC2 [Azenosertib]?
Answer: IC50 (BxPC3): 448 nM; IC50 (A2780): 900 nM; IC50 (A375): 239 nM; IC50 (PC3): > 10000 nM; IC50 (OVCAR3): 233 nM; IC50 (HeLa): 604 nM; IC50 (T47D): > 10000 nM

Question: Which “Ser296 phosphorylated Chk1 (BM1) abundance” value [1] does the source give for Nc1ccn([C@@H]2O[C@H](CO)[C@@H](O)C2(F)F)c(=O)n1 [gemcitabine, 2′,2′-difluoro 2′-deoxycytidine] here?
Answer: significant increase

Question: What about the “abundance of total cyclin E1 (BM3)” value [1] of the same compound?
Answer: significant increase
